Assay results reported in article PMC11602115 (Journal of Medicinal Chemistry, 2017).
Like-named read-outs stand apart in the source and are kept apart here.

Legend:
[1] = target: T1, human DP1 receptor (Homo sapiens, UniProt Q13258); assay: HTRF cAMP assay, recombinant human DP1 receptor in CHO-K1 cells; assay type: cell-based; conditions: for Emax: CHO-K1, intrinsic activity relative to 1 μM PGD2, read-out: hDP1 % IA
T1 construct: expressed in transfected cells
T1 sequence (Q13258 1-359): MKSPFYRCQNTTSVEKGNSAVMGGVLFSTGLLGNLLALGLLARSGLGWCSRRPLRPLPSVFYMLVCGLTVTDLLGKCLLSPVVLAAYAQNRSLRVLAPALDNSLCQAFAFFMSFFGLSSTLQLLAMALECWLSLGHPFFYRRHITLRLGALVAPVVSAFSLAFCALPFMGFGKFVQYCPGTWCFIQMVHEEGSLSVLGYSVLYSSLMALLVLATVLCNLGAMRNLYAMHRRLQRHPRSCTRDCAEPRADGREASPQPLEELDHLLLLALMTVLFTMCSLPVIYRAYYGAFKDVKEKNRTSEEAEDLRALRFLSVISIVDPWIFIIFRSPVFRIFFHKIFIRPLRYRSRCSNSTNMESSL
Protocol: (§1) The new compounds were tested for functional agonist activity in a standard (Cisbio) cAMP assay using recombinant IP or DP1 receptors stably expressed in CHO-K1 cells. Clonal cell lines were derived following standard protocols, but receptor expression levels were kept to a minimum to preclude receptor reserve effects.
(§2) For development of cAMP accumulation assays, recombinant IP or DP1 receptors were stably expressed in CHO-K1 cells and clonal cell lines derived following standard protocols. Receptor expression levels were minimized to preclude receptor reserve effects. HTRF cAMP assays were performed according to the manufacturer’s instructions (Cisbio, cAMP Dynamic 2 assay kit; no. 62AM4PEJ). IP receptor-expressing cells were harvested, resuspended in assay buffer (PBS containing 1 mM IBMX and 0.2% BSA) at a density of 200 000 cells per mL, and dispensed into 384-well assay plates (PerkinElmer Proxiplate no. 6008280) at 5 μL per well. Test compounds were solubilized and serially diluted in DMSO using 5-fold dilutions to generate a 10-point dose–response curve with a top concentration of 10 μM. The samples were then further diluted in PBS to achieve a 2× stock. Diluted compounds were then transferred to a triplicate set of assay plates (5 μL per well). After a 1 h incubation at room temperature, 5 μL of cAMP-D2 reagent diluted in lysis buffer was added to each well followed by 5 μL of cryptate reagent. Plates were then incubated at room temperature for 1 h prior to reading. Time-resolved fluorescence measurements were collected on PerkinElmer Envision or BMG Pherastar microplate readers.

[2] = test system: human platelet; assay: Inhibition of ADP-induced human platelet aggregation; assay type: cell-based; conditions: aggregation induced by 2.5 μM ADP, mean of at least two determinations
Protocol: Such aggregated and activated platelets produce vasoactive substances such as thromboxane and serotonin that may cause harmful vasoconstriction and vascular remodeling.[13] […] This secondary assay was carried out as previously described,[14] with aggregation induced by 2.5 μM ADP in the presence or absence of IP receptor agonists.

[3] = Stability in human microsome preparations; assay type: in vitro ADME; conditions: incubation at 37 °C, human microsomes; read-out: human MS, T1/2
Description: (§3) Table 1 Screening Data for Selected Analogues ^a | column: human and rat MS, T1/2 (min) ^g

[4] = Stability in rat microsome preparations; assay type: in vitro ADME; conditions: incubation at 37 °C, rat microsomes; read-out: rat MS, T1/2
Description: as §3

[5] = test system: prostaglandin receptors other than DP1; assay: Panel assays of prostaglandin receptors in melanophores; assay type: cell-based
[6] = target: T2, IP (Homo sapiens, UniProt P43119); assay: HTRF cAMP assay, recombinant human IP receptor stably expressed in CHO-K1 cells; assay type: cell-based; set-up: expressed in transfected cells
T2 sequence (P43119 whole entry): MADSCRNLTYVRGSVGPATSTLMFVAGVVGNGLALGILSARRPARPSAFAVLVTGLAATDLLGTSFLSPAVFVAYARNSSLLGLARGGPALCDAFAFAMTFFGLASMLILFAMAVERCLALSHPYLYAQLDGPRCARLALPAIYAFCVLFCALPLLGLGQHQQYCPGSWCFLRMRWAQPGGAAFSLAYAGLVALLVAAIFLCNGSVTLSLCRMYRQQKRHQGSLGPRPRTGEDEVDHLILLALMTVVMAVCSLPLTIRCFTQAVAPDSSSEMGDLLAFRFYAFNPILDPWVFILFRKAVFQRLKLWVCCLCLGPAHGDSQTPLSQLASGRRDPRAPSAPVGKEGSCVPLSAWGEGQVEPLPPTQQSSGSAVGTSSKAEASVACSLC
Protocol: as §1, §2

[7] = target: T3, rat IP (Rattus norvegicus, UniProt P43253); assay: HTRF cAMP assay, recombinant rat IP receptor; assay type: cell-based; set-up: expressed in transfected cells
T3 sequence (P43253 whole entry): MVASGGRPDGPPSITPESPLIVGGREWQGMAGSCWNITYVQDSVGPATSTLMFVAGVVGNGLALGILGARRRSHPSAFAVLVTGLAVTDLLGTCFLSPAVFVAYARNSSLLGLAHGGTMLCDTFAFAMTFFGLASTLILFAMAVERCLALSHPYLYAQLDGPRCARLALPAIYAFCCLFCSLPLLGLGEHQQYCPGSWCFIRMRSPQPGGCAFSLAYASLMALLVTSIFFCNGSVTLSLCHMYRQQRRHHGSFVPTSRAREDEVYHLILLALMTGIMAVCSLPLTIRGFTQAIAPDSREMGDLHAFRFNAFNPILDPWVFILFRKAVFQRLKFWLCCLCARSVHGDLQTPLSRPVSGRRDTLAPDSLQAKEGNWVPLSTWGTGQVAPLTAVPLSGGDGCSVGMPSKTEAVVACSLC
Protocol: as §1, §2

[8] = target: T4, EP1 (Homo sapiens, UniProt P34995); assay: cAMP HTRF agonist assay, EP1; assay type: cell-based
T4 sequence (P34995 1-402): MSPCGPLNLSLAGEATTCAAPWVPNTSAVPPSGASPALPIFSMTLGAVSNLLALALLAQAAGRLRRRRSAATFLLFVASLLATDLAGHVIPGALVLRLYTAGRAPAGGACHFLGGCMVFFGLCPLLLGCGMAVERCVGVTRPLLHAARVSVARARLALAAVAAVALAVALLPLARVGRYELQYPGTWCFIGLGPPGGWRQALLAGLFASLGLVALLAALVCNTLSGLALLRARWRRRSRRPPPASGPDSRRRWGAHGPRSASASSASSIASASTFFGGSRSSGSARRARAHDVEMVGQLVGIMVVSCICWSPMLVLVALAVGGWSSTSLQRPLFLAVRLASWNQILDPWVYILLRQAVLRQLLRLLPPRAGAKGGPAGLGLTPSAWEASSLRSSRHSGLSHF
Description: (§4) Table Sup2: Data with some comparator compounds in functional assays.
(§5) Compound DP1 EP1 EP2 EP3v6 EP4
(§6) EC50, µµµµM (% I.A) EC50, µµµµM (% I.A) EC50, µµµµM (% I.A) EC50, µµµµM (% I.A) EC50, µµµµM (% I.A)
(§7) n = 3 n = 2 n = 8 n = 6 n = 6 […]

[9] = target: EP2 (Homo sapiens, UniProt P43116); assay: cAMP HTRF agonist assay, EP2; assay type: cell-based; conditions: cAMP HTRF agonist assay
Chain of EP2 (P43116 whole entry): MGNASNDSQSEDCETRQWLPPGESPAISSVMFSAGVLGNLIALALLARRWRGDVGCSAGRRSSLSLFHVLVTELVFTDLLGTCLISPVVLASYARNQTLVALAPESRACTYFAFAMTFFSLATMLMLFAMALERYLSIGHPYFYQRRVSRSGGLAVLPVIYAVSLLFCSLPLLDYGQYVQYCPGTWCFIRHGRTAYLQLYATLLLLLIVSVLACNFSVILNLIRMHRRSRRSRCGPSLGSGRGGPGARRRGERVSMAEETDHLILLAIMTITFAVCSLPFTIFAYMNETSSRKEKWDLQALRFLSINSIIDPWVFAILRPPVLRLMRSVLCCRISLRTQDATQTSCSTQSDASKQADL
Description: (§8) Table Sup2: Data with some comparator compounds in functional assays. […]

[10] = target: T5, EP3v6 (Homo sapiens, UniProt P43115); assay: Melanophore dispersion assay, EP3v6; assay type: cell-based; set-up: expressed in transfected cells; host or cells: melanophores (transient, electroporation); conditions: melanophore dispersion assay (Gi)
T5 sequence (P43115 1-374 isoform P43115-4): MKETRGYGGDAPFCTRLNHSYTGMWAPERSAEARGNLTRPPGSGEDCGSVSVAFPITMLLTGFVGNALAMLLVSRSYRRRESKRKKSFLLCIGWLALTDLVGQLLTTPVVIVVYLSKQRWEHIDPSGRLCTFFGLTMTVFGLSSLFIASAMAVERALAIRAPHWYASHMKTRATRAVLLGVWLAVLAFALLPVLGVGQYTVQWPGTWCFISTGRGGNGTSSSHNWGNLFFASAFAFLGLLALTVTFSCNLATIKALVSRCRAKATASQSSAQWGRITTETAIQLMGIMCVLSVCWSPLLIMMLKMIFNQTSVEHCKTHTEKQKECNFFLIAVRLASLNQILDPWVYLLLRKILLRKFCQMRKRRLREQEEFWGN
Protocol: For the EP3v6 receptor functional assay, melanophores were transfected by electroporation using 20 μg of recombinant human EP3v6 receptor plasmid DNA per 400 μL of cell suspension. Transfected cells were immediately resuspended in fresh growth medium and plated in 384-well clear, polystyrene microplates. Plated cells were incubated at 27 °C for 48 h after transfection in order to achieve optimal receptor expression. To perform the assay, growth medium was removed from the assay plates and replaced with assay buffer (40 μL/well, 0.7× PBS, pH 7.3, supplemented with 20 nM melatonin to induce pigment aggregation). Following a 90 min incubation at room temperature, a 650 nm absorbance reading was collected and test compounds (10 μL per well) were transferred to the assay plates. Plates were incubated for 90 min at room temperature to allow compound-induced pigment redistribution to take place, and final absorbance reading was then collected. Test compounds were solubilized and serially diluted in DMSO, using 5-fold dilutions, to generate a 10-point dose–response curve with a top concentration of 10 μM (final assay concentration). Samples were then further diluted in assay buffer to achieve a 5× stock prior to addition to the assay plates. A SpectraMax absorbance plate reader (Molecular Devices, Inc.) was used for data collection.
as §8

[11] = test system: primary human pulmonary arterial smooth muscle cells; assay: HTRF cAMP assay in primary human pulmonary arterial smooth muscle cells; assay type: cell-based
Protocol: Additional In Vitro Assays […]
Compounds were also evaluated in HTRF cAMP assays using primary human pulmonary arterial smooth muscle cells (Cell Applications, Inc., #352Kq05a, or ThermoFisher/Gibco, #C0095C) using the same basic assay protocol outlined in the Experimental section. Cells were cultured as recommended by the suppliers, used at low passage and seeded into 384qwell assay plates at a density of 700q900 cell per well

[12] = target: EP4 (Homo sapiens, UniProt P35408); assay: cAMP HTRF agonist assay, EP4; assay type: cell-based; conditions: cAMP HTRF agonist assay
Chain of EP4 (P35408 whole entry): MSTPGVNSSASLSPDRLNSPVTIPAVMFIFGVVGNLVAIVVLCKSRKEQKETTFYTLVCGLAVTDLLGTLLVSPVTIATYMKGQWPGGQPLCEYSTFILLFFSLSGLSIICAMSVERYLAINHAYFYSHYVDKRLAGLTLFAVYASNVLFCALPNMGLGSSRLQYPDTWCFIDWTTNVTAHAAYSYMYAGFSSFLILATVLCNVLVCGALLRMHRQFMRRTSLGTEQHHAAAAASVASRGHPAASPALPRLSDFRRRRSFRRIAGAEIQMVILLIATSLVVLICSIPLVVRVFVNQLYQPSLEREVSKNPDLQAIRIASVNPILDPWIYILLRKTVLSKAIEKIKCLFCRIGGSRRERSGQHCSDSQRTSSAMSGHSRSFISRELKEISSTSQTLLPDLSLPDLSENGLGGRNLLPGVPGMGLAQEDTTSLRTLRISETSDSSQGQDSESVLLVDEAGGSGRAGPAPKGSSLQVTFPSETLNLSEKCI
Description: as §4, §5, §6, §7

[13] = target: T2, IP; assay: Recombinant human IP receptor cAMP assay after elimination of receptor reserve (transient CHO); assay type: cell-based; set-up: expressed in transfected cells; conditions: following elimination of receptor reserve
Description: Additional In Vitro Assays
To determine the potency and efficacy of compounds in cAMP assays in the absence of receptor reserve effects, the cDNA sequence of the human IP receptor was subqcloned into an expression plasmid containing a ubiquitin promoter in place of the more commonly used CMV promoter. The ubiquitin […]
level of receptor expression after transfection into a suitable cell line. This plasmid was transiently transfected into CHO cells using lipofectamine, following standard protocols. The quantity of transfected plasmid DNA was titrated down from 16 µg to 1 ng per transfection using empty vector as carrier DNA.

[14] = target: dog IP (Canis lupus familiaris, UniProt A0A8I3MUB8); assay: Radioligand binding, dog IP ([3H]-iloprost); conditions: radioligand, recombinant receptor membranes; read-out: measured Kd, dog IP
Chain of dog IP (A0A8I3MUB8 1-381): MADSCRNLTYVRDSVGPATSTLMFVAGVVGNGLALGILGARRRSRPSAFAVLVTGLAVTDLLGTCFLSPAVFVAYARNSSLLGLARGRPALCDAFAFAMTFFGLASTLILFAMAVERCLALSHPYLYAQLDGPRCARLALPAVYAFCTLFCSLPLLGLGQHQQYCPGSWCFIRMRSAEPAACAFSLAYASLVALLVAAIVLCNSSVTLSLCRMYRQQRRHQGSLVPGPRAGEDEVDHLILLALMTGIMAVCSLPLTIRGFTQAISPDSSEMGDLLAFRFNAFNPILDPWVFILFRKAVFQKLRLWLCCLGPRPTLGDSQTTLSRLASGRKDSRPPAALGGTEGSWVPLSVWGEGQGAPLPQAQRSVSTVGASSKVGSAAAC
Protocol: (§9) CHO-K1 cells expressing recombinant IP receptors were harvested, washed with ice-cold phosphate buffered saline, pH 7.4 (PBS), and then centrifuged at 48 000g for 20 min at 4 °C. The resulting cell pellet was then resuspended in ice-cold PBS containing 20 mM HEPES, pH 7.4, and 0.1 mM EDTA, homogenized on ice using a Brinkman Polytron, and centrifuged (48 000g for 20 min at 4 °C). This resuspension and centrifugation process was repeated one further time. Crude membrane pellets were stored at −80 °C until used for radioligand binding assays.
(§10) Assay incubations were terminated by rapid filtration through PerkinElmer GF/C filtration plates pretreated with 0.3% PEI, under vacuum pressure using a 96-well Packard filtration apparatus, followed by multiple washes with ice-cold wash buffer (PBS containing 20 mM HEPES and 0.1 mM EDTA, pH 7.4). Plates were then dried at 45 °C for a minimum of 2 h. Finally, 25 μL of BetaScint scintillation cocktail was added to each well and plates were counted in a Packard TopCount scintillation counter. In each competition study, test compounds were dosed at 10 concentrations with triplicate determinations at each test concentration. A reference compound, typically iloprost, was included in every runset for quality control purposes.

[15] = target: monkey IP; assay: Radioligand binding, monkey IP ([3H]-iloprost); conditions: radioligand, recombinant receptor membranes; read-out: measured Kd, monkey IP
Protocol: as §9
as §10, with “concentration.” for “concentration. A reference compound, typically iloprost, was included in every runset for quality control purposes.”

[16] = target: T3, rat IP; assay: Radioligand binding, rat IP ([3H]-iloprost); set-up: expressed in transfected cells; host or cells: CHO-K1 (crude membranes); conditions: radioligand, recombinant receptor membranes; read-out: measured Kd, rat IP
Protocol: as §9, §10

[17] = HTRF (cAMP) human DP1 receptor assay, mean of at least three determinations, read-out: EC50 hDP1
[18] = HTRF (cAMP) human IP receptor assay; mean of at least three determinations

## O=C(O)COC[C@H]1CC[C@H](COC(=O)N(c2ccccc2)c2ccccc2)CC1 [5a, 2-(((1r,4r)-4-((Diphenylcarbamoyloxy)methyl)cyclohexyl)methoxy)acetic Acid]
[1]
  Emax: 59%
[1]; [17]
  EC50: 355 nM
[2]
  IC50: 25 nM
[3]
  half-life: > 60 min
[4]
  half-life: > 60 min
[5]
  activity at prostaglandin receptors other than DP1: no activity
[6]; CHO-K1; read-out: hIP % IA
  Emax: 77%
[6]; [18]
  EC50: 21 nM
[7]; HTRF (cAMP) rat IP receptor assay, mean of at least three determinations
  EC50: 365 nM
[7]; read-out: rIP % IA
  Emax: 89%

## CCCCC[C@H](O)/C=C/[C@H]1[C@H](O)CC(=O)[C@@H]1C/C=C\CCCC(=O)O [PGE2]
[1]; cAMP HTRF agonist assay (Gs), Table Sup2, read-out: DP1 EC50
  EC50: 520 nM
[8]
  EC50: 51 nM
  EP1 % I.A: 92%
[9]
  EP2 % I.A: 84%
[10]
  EP3v6 % I.A: 100%

## CC(C)N(CCCCOCC(=O)O)c1cnc(-c2ccccc2)c(-c2ccccc2)n1 [compound 2, MRE269]
[1]
  Emax: 80%
[1]; [17]
  EC50: 154 nM
[1]; cAMP HTRF agonist assay (Gs), Table Sup2
  DP1 % I.A: 80%
[2]
  IC50: 288 nM
[11]
  Efficacy (% vs. Iloprost) [95% CI], primary human PASMC cAMP: 41 [33, 49] %
[11]; Homo sapiens, PASMC, n = 8, read-out: EC50 [95% CI], primary human PASMC cAMP
  EC50: 184 nM
[9]
  EC50: > 10 µM
[12]
  EC50: > 10 µM
[6]; CHO-K1, read-out: hIP % IA
  Emax: 60%
[6]; [18]
  EC50: 22 nM
[13]
  Efficacy (% vs. Iloprost) [95% CI], recombinant IP receptor cAMP: 48 [43, 53] %
[13]; n = 9, read-out: EC50 [95% CI], recombinant IP receptor cAMP
  EC50: 151 nM
[10]
  EC50: > 10 µM

## [^3H]-iloprost [reference compound]
[14]
  Kd: 15.4 nM
[15]
  Kd: 11.9 nM
[16]
  Kd: 7 nM
